The assay concerns BDF1 mice, B16 melanoma ip, median survival T/C. In words: NCI In Vivo Anticancer Drug Screen. Data for tumor model B16 Melanoma (intraperitoneal) in B6D2F1 (BDF1) mice. Conditions: endpoint: median survival time, schedule: Q01DX009 (ip), higher = longer survival. The method, boiled down: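 The ratio T/C compares compound-treated mice with vehicle-treated controls, using survival or tumor size as the endpoint in a transplantable tumor model.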

Where [1] appears, read: dose: 50.0 mg/kg/injection, vehicle: saline with Tween-80.
The mark [2] stands for this setting: dose: 100.0 mg/kg/injection, vehicle: saline with Tween-80.
[3] abbreviates: dose: 400.0 mg/kg/injection, vehicle: saline with Tween-80.
[4] abbreviates: dose: 25.0 mg/kg/injection, vehicle: saline with Tween-80.
[5] abbreviates: dose: 6.25 mg/kg/injection, vehicle: saline.
[6] abbreviates: dose: 12.5 mg/kg/injection, vehicle: saline.
The mark [7] stands for this setting: dose: 25.0 mg/kg/injection, vehicle: saline.
The mark [8] stands for this setting: dose: 50.0 mg/kg/injection, vehicle: Klucel (hydroxypropylcellulose) (HPC).
Where [9] appears, read: dose: 100.0 mg/kg/injection, vehicle: Klucel (hydroxypropylcellulose) (HPC).
The mark [10] stands for this setting: dose: 200.0 mg/kg/injection, vehicle: Klucel (hydroxypropylcellulose) (HPC).
[11] abbreviates: dose: 25.0 mg/kg/injection, vehicle: Klucel (hydroxypropylcellulose) (HPC).
[12] abbreviates: dose: 50.0 mg/kg/injection, vehicle: saline.
Where [13] appears, read: dose: 100.0 mg/kg/injection, vehicle: saline.
Where [14] appears, read: dose: 200.0 mg/kg/injection, vehicle: saline.
Setting [15] is: dose: 400.0 mg/kg/injection, vehicle: saline.

Values joined by “and” are separate entries in the source; they are usually repeats but may differ in a detail not shown here. Equal entries are not always repeated. Inconclusive results and toxic doses are left out.

Take `Cc1ccc(S(=O)(=O)Oc2ccc(-c3ccc(Br)cc3)cc2)cc1`: the T/C is, setting by setting: under setting [1], 96 % of control; under setting [2], 93 % of control; (dose: 200.0 mg/kg/injection, vehicle: saline with Tween-80) 86 % of control; under setting [3], 91 % of control.

Consider `Cc1nnc(NS(=O)(=O)c2ccc(N=Nc3nc4[nH]c(N)nc(=S)c4[nH]3)cc2)s1`, for which the T/C was 112 % of control under setting [4], 100 % of control under setting [1] and 92 % of control under setting [2].

As to `C/C=C1/C[C@@H](C)[C@@](C)(O)C(=O)OCC2=CCN3CC[C@@H](OC1=O)[C@@H]23`, the T/C is 110 % of control (dose: 10.0 mg/kg/injection, vehicle: saline); 111 % of control (dose: 11.3 mg/kg/injection, vehicle: saline); 113 % of control (dose: 20.0 mg/kg/injection, vehicle: saline); 285 % of control (dose: 22.5 mg/kg/injection, vehicle: saline); 108 % of control (dose: 40.0 mg/kg/injection, vehicle: saline); 102 % of control (dose: 45.0 mg/kg/injection, vehicle: saline). In addition, the T/C is 108 % of control (dose: 80.0 mg/kg/injection, vehicle: saline) and 88 % of control (dose: 90.0 mg/kg/injection, vehicle: saline).

As for `CC(=O)O[C@@H]1[C@@H](O)C2=C3[C@]4(C)[C@@H]1C(C)(C)C(=O)C[C@@H]4[C@]3(O)[C@H](OC(C)=O)[C@@]1(C[C@@H]1C)C2=O`, the T/C by setting is: (dose: 1.0 mg/kg/injection, vehicle: saline with Tween-80) 115 % of control; (dose: 2.0 mg/kg/injection, vehicle: saline with Tween-80) 109 % of control; (dose: 3.12 mg/kg/injection, vehicle: saline with Tween-80) 97 % of control and 101 % of control; (dose: 4.0 mg/kg/injection, vehicle: saline with Tween-80) 102 % of control; (dose: 6.25 mg/kg/injection, vehicle: saline with Tween-80) 104 % of control; (dose: 8.0 mg/kg/injection, vehicle: saline with Tween-80) 114 % of control. In addition, the T/C was 119 % of control (dose: 12.5 mg/kg/injection, vehicle: saline with Tween-80); 104 % of control under setting [4]; 101 % of control under setting [1].

On to `CCC[CH2][Hg][Cl]`, for which the T/C (dose: 0.75 mg/kg/injection, vehicle: saline with Tween-80) is 91 % of control and the T/C (dose: 1.5 mg/kg/injection, vehicle: saline with Tween-80) is 92 % of control.

Consider `CN(C)CCC=C1c2ccccc2CCc2ccccc21`, for which the T/C is, setting by setting: (dose: 3.12 mg/kg/injection, vehicle: saline) 109 % of control; under setting [5], 117 % of control; under setting [6], 100 % of control; under setting [7], 102 % of control.

For `C1CC[N-]CC1.C1CC[N-]CC1.[Cl][Pt+2]([Cl])([Cl])[Cl]`, the T/C runs as follows: under setting [8], 111 % of control; under setting [9], 120 % of control; under setting [10], 123 % of control.

On to `CC(C)=CN1CCOCC1`, for which the T/C is 94 % of control under setting [11], 100 % of control under setting [8] and 94 % of control under setting [9].

Turning to `CCOCCCN`, the T/C was 122 % of control under setting [12] and 122 % of control under setting [13].

For the compound `COc1ccc(CC(CO)C(CO)Cc2ccc(OC)c(OC)c2)cc1OC` (stereo not given), the T/C is 93 % of control under setting [9]; 100 % of control under setting [10]; 103 % of control (dose: 400.0 mg/kg/injection, vehicle: Klucel (hydroxypropylcellulose) (HPC)).

Regarding `CCCCCCCCCCCCCCCCOc1ccccc1C(C)=O`, the T/C was 92 % of control under setting [4], 92 % of control under setting [1], 89 % of control under setting [2] and 100 % of control under setting [3].

On to `CC1CNC(=O)O1` (stereo not given), for which the T/C is, setting by setting: under setting [7], 104 % of control; under setting [12], 100 % of control; under setting [13], 100 % of control; under setting [14], 92 % of control; under setting [15], 97 % of control.

For the compound `S=C(Nc1ccccn1)Nc1ccccn1`, the T/C is, setting by setting: under setting [11], 97 % of control; under setting [8], 104 % of control; under setting [9], 111 % of control.

Regarding `COc1cc2c3cc1Oc1c(O)c(OC)cc4c1[C@H](Cc1ccc(cc1)Oc1cc(ccc1O)C[C@H]3N(C)CC2)N(C)CC4`, the T/C (dose: 10.0 mg/kg/injection, vehicle: water) was 108 % of control; the T/C (dose: 20.0 mg/kg/injection, vehicle: water) was 114 % of control; the T/C (dose: 40.0 mg/kg/injection, vehicle: water) was 102 % of control and 113 % of control; the T/C under setting [1] is 118 % of control; the T/C (dose: 75.0 mg/kg/injection, vehicle: saline with Tween-80) is 112 % of control; the T/C (dose: 80.0 mg/kg/injection, vehicle: water) is 88 % of control and 114 % of control. For the same compound, the T/C under setting [2] is 118 % of control and the T/C (dose: 150.0 mg/kg/injection, vehicle: saline with Tween-80) is 119 % of control.

Consider `COc1cc(C(=O)c2cc3c(cc2C)OCO3)cc(OC)c1OC`, for which the T/C (dose: 6.25 mg/kg/injection, vehicle: Klucel (hydroxypropylcellulose) (HPC)) is 105 % of control; the T/C (dose: 12.5 mg/kg/injection, vehicle: Klucel (hydroxypropylcellulose) (HPC)) is 97 % of control and 115 % of control; the T/C under setting [11] is 98 % of control and 103 % of control; the T/C under setting [8] was 101 % of control and 112 % of control; the T/C under setting [9] was 109 % of control; the T/C under setting [10] is 104 % of control.

Regarding `CCC[CH2][Hg][O]C(C)=O`, the T/C (dose: 0.63 mg/kg/injection, vehicle: other) was 99 % of control; the T/C (dose: 1.25 mg/kg/injection, vehicle: other) was 89 % of control; the T/C (dose: 2.5 mg/kg/injection, vehicle: other) is 86 % of control.

In the case of `COc1cc(C(N)=O)cc(OC)c1O`, the T/C was 115 % of control under setting [13], 110 % of control under setting [14] and 118 % of control under setting [15].

On to `COc1cc2[nH]c(C)c(CCN3CCN(c4ccccc4)CC3)c2cc1OC`, for which the T/C is 107 % of control (dose: 0.04 mg/kg/injection, vehicle: Klucel (hydroxypropylcellulose) (HPC)); 92 % of control (dose: 0.09 mg/kg/injection, vehicle: Klucel (hydroxypropylcellulose) (HPC)); 93 % of control (dose: 0.19 mg/kg/injection, vehicle: Klucel (hydroxypropylcellulose) (HPC)); 106 % of control (dose: 0.39 mg/kg/injection, vehicle: Klucel (hydroxypropylcellulose) (HPC)); 102 % of control (dose: 0.78 mg/kg/injection, vehicle: Klucel (hydroxypropylcellulose) (HPC)).

As to `CCC1OCCN1C(C)C` (stereo not given), the T/C runs as follows: under setting [7], 102 % of control; under setting [12], 106 % of control.

In the case of `CNc1nc(N(C)C)nc(N(C)C)n1`, the T/C is 115 % of control under setting [5]; 96 % of control and 100 % of control (dose: 6.25 mg/kg/injection, vehicle: water); 111 % of control under setting [6]; 95 % of control and 102 % of control (dose: 12.5 mg/kg/injection, vehicle: water); 111 % of control under setting [7]; 94 % of control (dose: 25.0 mg/kg/injection, vehicle: water). Besides, the T/C reads like this: under setting [12], 116 % of control; (dose: 50.0 mg/kg/injection, vehicle: water) 100 % of control and 118 % of control; under setting [13], 116 % of control; (dose: 100.0 mg/kg/injection, vehicle: water) 100 % of control and 105 % of control.
